According to US20210386367A1, “DEVICES AND SYSTEMS FOR GASTROINTESTINAL MICROBIOME DETECTION AND MANIPULATION” (Progenity, Inc., priority 2018, published 2021):
Converted amounts (≈) assume the structure as drawn. “Also recorded” adds a separate entry of the source. Like-named read-outs stand apart in the source and are kept apart here.

How the values were obtained:
B. vulgatus ATCC 8482 = test: Broth microdilution MIC (time-kill study); assay type: cell-based, Bacteroides vulgatus
[1] = tested on: Bacteroides spp. spontaneous mutants; test: Broth microdilution MIC of spontaneous mutants; assay type: cell-based
In short: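 Isolates from drug selection plates were subcultured on agar containing drug at the selection concentration and identified by MALDI, then MIC was determined by CLSI broth microdilution (M100-S28) with serial two-fold dilutions. Plates were pre-reduced 1 h in an anaerobic chamber; final inoculum ~1×10^6 CFU/mL.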

E. coli ATCC 25922 [2] = test: Broth microdilution MIC (time-kill study); assay type: cell-based, Escherichia coli
Klebsiella spp. = test: Broth microdilution MIC, 50 clinical isolates (20 K. oxytoca, 30 K. pneumoniae); assay type: cell-based
Procedure: Minimal inhibitory concentration (MIC) values were determined by broth microdilution or agar dilution in accordance with guidelines from the Clinical and Laboratory Standards Institute (CLSI; (1) “Methods for Dilution Antimicrobial Susceptibility Tests for Bacteria That Grow Aerobically; Approved Standard; 11th ed.” CLSI standard M07-A11, 2018; (2) “Performance Standards for Antimicrobial Susceptibility Testing; Twenty-Eighth Informational Supplement,” CLSI document M100-S28, 2018; and (3) “Methods for Antimicrobial Susceptibility Testing of Anaerobic Bacteria; Approved Standard—Eighth Edition,” CLSI document M11-A8, 2012).
Tested aerobically by broth microdilution: • Escherichia coli, n=50 • Klebsiella spp., n=50 • Pseudomonas aeruginosa, n=50 • Streptococcus spp., n=50 • Staphylococcus aureus, n=50 • Enterococcus faecalis, n=50 • Enterobacter aerogenes, n=50 • Proteus mirabilis, n=50
Broth microdilution testing of aerobic bacteria was conducted in cation-adjusted Mueller Hinton broth (MHBII). For testing streptococci, lysed horse blood (LHB) was added to MHBII broth at a final concentration of 3%. Where LHB was used, it was added after filtering.
Broth microdilution susceptibility testing in 96-well microplates was conducted in accordance with CLSI methods (1) and (2). Automated liquid handlers were used to conduct serial dilutions and liquid transfers, including the Multidrop 384 (Labsystems, Helsinki, Finland), Biomek 2000, and the Biomek FX (Beckman Coulter, Fullerton, Calif.). All wells in columns 2 through 12 of a standard 96-well microdilution plate (Costar 3795) were filled with 150 μL of the appropriate diluent. Then, 300 μL of the test agents were added to the wells of column 1 of the plates at 100× the highest final concentration to be tested. Serial two-fold dilutions were made across the rows through column 11 using the Biomek 2000. The wells of column 12 contained no drug and served as the growth control wells. This plate served as the “mother plate” from which MIC assay plates or “daughter plates” were made.
The daughter plates were loaded with 190 μL per well of the appropriate medium using the Multidrop 384. The daughter plates were created using the Biomek FX which transferred 2 μL of drug solution from each well of a mother plate to each corresponding well of the daughter plate in a single step. A standardized inoculum of each test organism was prepared per CLSI methods (1) to equal a 0.5 McFarland standard, followed by a dilution of 1:20 for aerobes and 1:10 for anaerobes. The plates were then inoculated with 10 μL of the diluted inoculum using the Biomek 2000 from low to high drug concentration, resulting in a final concentration of approximately 5×10^5 CFU/mL per well. An un-inoculated plate was incubated in parallel for each medium for the purpose of assessing solubility of the drug in the test media.
Inoculated plates were stacked 3 or 4 high, covered with a sterile lid on the top plate, placed into boxes with CO2 planchets (streptococci) or plastic bags (all other isolates). Plates were incubated at 35° C. for 16-24 hr in ambient air for aerobes or for 42-48 hr in the anaerobic environment of the Bactron II anaerobe chamber (Sheldon Manufacturing Co.; Cornelius, Oreg.). Following incubation, the microplates were removed from the incubator and viewed from the bottom using a plate viewer. The MIC values were read and recorded as the lowest concentration of drug that inhibited visible growth of the organism as per CLSI methods (1) and (2).

E. coli ATCC 25922 [3] = test: Time-kill assay; assay type: cell-based, Escherichia coli; settings: 2×, 4×, 8× MIC; 2, 6, 24 hr

`C[C@@H](O)[C@H]1C(=O)N2C(C(=O)O)=C(S[C@@H]3CN[C@H](C(=O)N(C)C)C3)[C@H](C)[C@H]12` [meropenem] was tested, and the MIC (B. vulgatus ATCC 8482; B. vulgatus ATCC 8482) was 0.12 µg/mL (≈ 0.313 µM), the MIC (B. vulgatus ATCC 8482; Phocaeicola vulgatus, ATCC8482, broth microdilution, read-out: MIC) was 0.12 µg/mL (≈ 0.313 µM) and the MIC ([1]; B. fragilis ATCC 25285, selected on rifaximin 4X MIC, Colony A, read-out: MIC) was 0.03 µg/mL. The MIC ([1]; B. fragilis ATCC 25285, selected on rifaximin 4X MIC, Colony B, read-out: MIC) was 0.06 µg/mL, the MIC ([1]; B. fragilis ATCC 25285, selected on rifaximin 8X MIC, Colony A, read-out: MIC) was 0.06 µg/mL and the MIC ([1]; B. fragilis ATCC 25285, selected on rifaximin 8X MIC, Colony B, read-out: MIC) was 0.06 µg/mL. It also gave an MIC ([1]; B. fragilis ATCC 25285 Parent, read-out: MIC) of 0.06 µg/mL, an MIC ([1]; B. ovatus MMX 3503, selected on rifaximin 4X MIC, Colony A, read-out: MIC) of 0.12 µg/mL and an MIC ([1]; B. ovatus MMX 3503, selected on rifaximin 4X MIC, Colony B, read-out: MIC) of 0.12 µg/mL. For the same molecule, the MIC ([1]; B. ovatus MMX 3503, selected on rifaximin 8X MIC, Colony A, read-out: MIC) was 0.12 µg/mL, the MIC ([1]; B. ovatus MMX 3503, selected on rifaximin 8X MIC, Colony B, read-out: MIC) was 0.12 µg/mL and the MIC ([1]; B. ovatus MMX 3503 Parent, read-out: MIC) was 0.12 µg/mL. For the same molecule, the MIC ([1]; B. vulgatus ATCC 8482, selected on ceftriaxone 4X MIC, Colony A, read-out: MIC) was 0.25 µg/mL, the MIC ([1]; B. vulgatus ATCC 8482, selected on ceftriaxone 4X MIC, Colony B, read-out: MIC) was 0.25 µg/mL and the MIC ([1]; B. vulgatus ATCC 8482, selected on rifaximin 4X MIC, Colony A, read-out: MIC) was 0.12 µg/mL. It also gave an MIC ([1]; B. vulgatus ATCC 8482, selected on rifaximin 4X MIC, Colony B, read-out: MIC) of 0.12 µg/mL, an MIC ([1]; B. vulgatus ATCC 8482, selected on rifaximin 8X MIC, Colony A, read-out: MIC) of 0.25 µg/mL and an MIC ([1]; B. vulgatus ATCC 8482, selected on rifaximin 8X MIC, Colony B, read-out: MIC) of 0.12 µg/mL. For the same molecule, the MIC ([1]; B. vulgatus ATCC 8482 Parent (Table 50), read-out: MIC) was 0.12 µg/mL, the MIC ([1]; B. vulgatus ATCC 8482 Parent (Table 54), read-out: MIC) was 0.12 µg/mL and the MIC (E. coli ATCC 25922 [2]; E. coli ATCC 25922) was 0.015 µg/mL (≈ 0.0391 µM). The MIC (E. coli ATCC 25922 [2]; Escherichia coli, ATCC25922, broth microdilution, read-out: MIC) was 0.015 µg/mL (≈ 0.0391 µM), the “% R” value (Klebsiella spp.) was “Sixteen” and the “% S” value (Klebsiella spp.) was 84%. For the same molecule, the Mode (Klebsiella spp.) was 0.015 µg/mL, the “relative activity among drugs tested” value (Klebsiella spp.) was “most active drug evaluated; also recorded: MIC50 value for meropenem was the lowest” and the “Cumulative percentage of isolates at MIC” value (Klebsiella spp.; 0.015 μg/mL) was 58.0%. The “Number of test isolates at MIC” value (Klebsiella spp.; 0.015 μg/mL) was 27, the “Cumulative percentage of isolates at MIC” value (Klebsiella spp.; 0.03 μg/mL) was 80.0% and the “Number of test isolates at MIC” value (Klebsiella spp.; 0.03 μg/mL) was 11. The “Cumulative percentage of isolates at MIC” value (Klebsiella spp.; 0.06 μg/mL) was 82.0%, the “Number of test isolates at MIC” value (Klebsiella spp.; 0.06 μg/mL) was 1 and the “Cumulative percentage of isolates at MIC” value (Klebsiella spp.; 0.5 μg/mL) was 84.0%. For the same molecule, the “Number of test isolates at MIC” value (Klebsiella spp.; 0.5 μg/mL) was 1, the “Cumulative percentage of isolates at MIC” value (Klebsiella spp.; 8 μg/mL) was 88.0% and the “Number of test isolates at MIC” value (Klebsiella spp.; 8 μg/mL) was 2. For the same molecule, the “Cumulative percentage of isolates at MIC” value (Klebsiella spp.; >8 μg/mL) was 100.0%, the “Number of test isolates at MIC” value (Klebsiella spp.; >8 μg/mL) was 6 and the MIC50 (Klebsiella spp.; Klebsiella, read-out: MIC50) was 0.015 µg/mL (≈ 0.0391 µM). For the same molecule, the MIC90 (Klebsiella spp.; Klebsiella, read-out: MIC90) was > 8 µg/mL, the “% R” value (Klebsiella spp.; listed as MEM) was 16% and the MIC90 (Klebsiella spp.; listed as MEM) was >8 µg/mL. For the same molecule, the “Cumulative percentage of isolates at MIC” value (Klebsiella spp.; ≤0.008 μg/mL) was 4.0%, the “Number of test isolates at MIC” value (Klebsiella spp.; ≤0.008 μg/mL) was 2 and the “time-kill kinetics outcome (bactericidal = ≥3 log reduction in CFU per mL)” value (E. coli ATCC 25922 [3]) was “rapid killing and bactericidal activity at the two higher concentrations at 24 hr”.
`CO[C@H]1/C=C/O[C@@]2(C)Oc3c(C)c(O)c4c(O)c(c5c(nc6cc(C)ccn65)c4c3C2=O)NC(=O)/C(C)=C\C=C\[C@H](C)[C@H](O)[C@@H](C)[C@@H](O)[C@@H](C)[C@H](OC(C)=O)[C@@H]1C` [rifaximin] was tested, and the MIC (B. vulgatus ATCC 8482; B. vulgatus ATCC 8482) was 0.25 µg/mL (≈ 0.318 µM), the MIC (B. vulgatus ATCC 8482; broth microdilution) was 0.25 µg/mL (≈ 0.318 µM) and the MIC ([1]; B. fragilis ATCC 25285, selected on rifaximin 4X MIC, Colony A) was >64 µg/mL. The MIC ([1]; B. fragilis ATCC 25285, selected on rifaximin 4X MIC, Colony B) was 64 µg/mL, the MIC ([1]; B. fragilis ATCC 25285, selected on rifaximin 8X MIC, Colony A) was >64 µg/mL and the MIC ([1]; B. fragilis ATCC 25285, selected on rifaximin 8X MIC, Colony B) was >64 µg/mL. For the same molecule, the MIC ([1]; B. fragilis ATCC 25285 Parent) was 0.12 µg/mL, the MIC ([1]; B. ovatus MMX 3503, selected on rifaximin 4X MIC, Colony A) was >64 µg/mL and the MIC ([1]; B. ovatus MMX 3503, selected on rifaximin 4X MIC, Colony B) was >64 µg/mL. For the same molecule, the MIC ([1]; B. ovatus MMX 3503, selected on rifaximin 8X MIC, Colony A) was >64 µg/mL, the MIC ([1]; B. ovatus MMX 3503, selected on rifaximin 8X MIC, Colony B) was >64 µg/mL and the MIC ([1]; B. ovatus MMX 3503 Parent) was 0.25 µg/mL. For the same molecule, the MIC ([1]; B. vulgatus ATCC 8482, selected on ceftriaxone 4X MIC, Colony A) was 0.06 µg/mL, the MIC ([1]; B. vulgatus ATCC 8482, selected on ceftriaxone 4X MIC, Colony B) was 0.12 µg/mL and the MIC ([1]; B. vulgatus ATCC 8482, selected on rifaximin 4X MIC, Colony A) was 32 µg/mL. For the same molecule, the MIC ([1]; B. vulgatus ATCC 8482, selected on rifaximin 4X MIC, Colony B) was 64 µg/mL, the MIC ([1]; B. vulgatus ATCC 8482, selected on rifaximin 8X MIC, Colony A) was >64 µg/mL and the MIC ([1]; B. vulgatus ATCC 8482, selected on rifaximin 8X MIC, Colony B) was >64 µg/mL. The MIC ([1]; B. vulgatus ATCC 8482 Parent (Table 50)) was 0.06 µg/mL, the MIC ([1]; B. vulgatus ATCC 8482 Parent (Table 54)) was 0.06 µg/mL and the “broth microdilution MIC of selected colonies relative to parent strain” value ([1]; colonies selected at 4× and 8× the MIC) was “several-fold higher”. The MIC (E. coli ATCC 25922 [2]; E. coli ATCC 25922) was 8 µg/mL (≈ 10.2 µM), the MIC (E. coli ATCC 25922 [2]; broth microdilution) was 8 µg/mL (≈ 10.2 µM) and the MIC50 (Klebsiella spp.) was 32 µg/mL (≈ 40.7 µM). For the same molecule, the MIC90 (Klebsiella spp.) was > 64 µg/mL, the Mode (Klebsiella spp.) was 16 µg/mL and the “Cumulative percentage of isolates at MIC” value (Klebsiella spp.; 8 μg/mL) was 10.0%. For the same molecule, the “Number of test isolates at MIC” value (Klebsiella spp.; 8 μg/mL) was 5, the “Cumulative percentage of isolates at MIC” value (Klebsiella spp.; 16 μg/mL) was 46.0% and the “Number of test isolates at MIC” value (Klebsiella spp.; 16 μg/mL) was 18. For the same molecule, the “Cumulative percentage of isolates at MIC” value (Klebsiella spp.; 32 μg/mL) was 64.0%, the “Number of test isolates at MIC” value (Klebsiella spp.; 32 μg/mL) was 9 and the “Cumulative percentage of isolates at MIC” value (Klebsiella spp.; 64 μg/mL) was 80.0%. For the same molecule, the “Number of test isolates at MIC” value (Klebsiella spp.; 64 μg/mL) was 8, the “Cumulative percentage of isolates at MIC” value (Klebsiella spp.; >64 μg/mL) was 100.0% and the “Number of test isolates at MIC” value (Klebsiella spp.; >64 μg/mL) was 10. For the same molecule, the MIC90 (Klebsiella spp.; listed as RFX) was >64 µg/mL and the “time-kill kinetics outcome (bactericidal = ≥3 log reduction in CFU per mL)” value (E. coli ATCC 25922 [3]) was “bacteriostatic effect at 2-6 hr with regrowth between 6 and 24 hr”.
